The text below walks through data of patent US8338472B2, “Hexahydrocyclopentyl[F]indazole carboxamides and derivatives thereof as selective glucocorticoid receptor modulators” (Merck Sharp & Dohme Corp., priority 2008, dated 2012).

Like-named read-outs stand apart in the source and are kept apart here.

Assay [1] has as its target T1, glucocorticoid receptor (GR) (Homo sapiens, UniProt P04150).
T1 sequence (P04150 1-777): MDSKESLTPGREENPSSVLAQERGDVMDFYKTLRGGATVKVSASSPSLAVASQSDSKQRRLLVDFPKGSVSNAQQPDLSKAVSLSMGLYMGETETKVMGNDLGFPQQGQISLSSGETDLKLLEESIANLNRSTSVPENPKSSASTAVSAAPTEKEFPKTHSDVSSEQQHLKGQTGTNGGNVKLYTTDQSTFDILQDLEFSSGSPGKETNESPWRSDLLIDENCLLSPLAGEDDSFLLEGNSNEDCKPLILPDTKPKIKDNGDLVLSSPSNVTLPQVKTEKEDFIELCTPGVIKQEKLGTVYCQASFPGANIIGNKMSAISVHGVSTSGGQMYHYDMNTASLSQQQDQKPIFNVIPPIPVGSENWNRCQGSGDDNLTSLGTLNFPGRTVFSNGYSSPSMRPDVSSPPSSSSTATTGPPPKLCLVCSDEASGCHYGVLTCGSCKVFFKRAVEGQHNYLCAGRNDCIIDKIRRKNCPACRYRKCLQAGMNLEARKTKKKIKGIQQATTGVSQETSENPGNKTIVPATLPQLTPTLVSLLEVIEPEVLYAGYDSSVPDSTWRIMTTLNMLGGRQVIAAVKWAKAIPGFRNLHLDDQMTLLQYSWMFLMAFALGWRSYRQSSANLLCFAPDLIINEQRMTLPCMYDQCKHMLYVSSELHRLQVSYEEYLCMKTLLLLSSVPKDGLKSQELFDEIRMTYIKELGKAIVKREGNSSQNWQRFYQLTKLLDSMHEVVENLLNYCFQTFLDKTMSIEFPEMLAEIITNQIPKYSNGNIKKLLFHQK
Briefly: Ligand binding assay (GR BIND), 3H-dexamethasone displacement in MDA-MB-453 cell lysate. As to conditions: GR BIND Ki, Table 1.

For the next assay, the target named is T2, Glucocorticoid Receptor (Homo sapiens, UniProt P04150).
T2 construct: These cells express large amount of the GR and are very responsive to GC treatment; endogenous in cells; host or cells: A549 cells transiently transfected with the MMTV-LUC reporter
T2 sequence (P04150 1-777): T1 sequence (P04150 1-777)
As to the kind of experiment: Trans-Activation Modulation of Glucocorticoid Receptor (GRAMMER), MMTV-LUC reporter gene in A549 cells. Format: cell-based. As to conditions: Table 1; for Emax: A549, A549 cells, read-out: Transactivation A549 Cells GRAMMER Emax; for Emax / Transactivation A549 Cells GRAMMER Emax: Emax relative to 300 nM dexamethasone; for EC50: inflection point, read-out: Transactivation A549 Cells GRAMMER IP; for EC50 / Transactivation A549 Cells GRAMMER Emax: A549 cells. Put shortly:
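Luciferase from a transiently transfected MMTV-LUC reporter was measured after 24 h compound exposure (≤1% DMSO) in A549 or MDA-MB-453 cells. For antagonism, the decrease of 10 nM dexamethasone-induced signal was calculated. For agonism, Emax was referenced to 300 nM dexamethasone.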
(In a reporter assay the amount or activity of a reporter protein is the signal.)

A further assay has as its target T3, human GR (Homo sapiens, UniProt P04150).
T3 construct: U937 cells contain an endogenous glucocorticoid receptor (GR); endogenous in cells; host or cells: U937 cells stably transfected with the TNF-alpha promoter/beta-lactamase reporter
T3 sequence (P04150 1-777): T1 sequence (P04150 1-777)
As to the kind of experiment: Transrepression Assay (GITAR), TNFα-β-lactamase reporter gene in U937 cells. Format: cell-based. As to conditions: for GITAR Greater than by GRAMMER % SEP: GITAR Emax minus GRAMMER Emax; for EC50: inflection point, read-out: Transrepression U937 Cells GITAR IP; for EC50 / Transrepression U937 Cells GITAR Emax: U937 cells. Put shortly:
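Repression of PMA (5 ng/ml final)/LPS (100 ng/ml final)-induced TNF-α promoter activity, read as β-lactamase cleavage of CCF2-AM, in stably transfected U937 cells expressing native GR. Compound added 30-45 min before stimulation, overnight (~18 hr) 37° C; normalized to 100 nM dexamethasone (100%).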

Where [2] appears, read: U-937, U937 cells, activity repressed by 100 nM dexamethasone = 100%, Table 1, read-out: Transrepression U937 Cells GITAR Emax.
Setting [3] is: U-937, text statement, 100 nM dexamethasone = 100%, read-out: maximal activity in the transrepression assay (GITAR).
Where [4] appears, read: activity repressed by 100 nM dexamethasone = 100%, Table 1.

On to `CCCN(CC1CCCO1)C(=O)[C@H]1CCC2=Cc3c(cnn3-c3ccc(F)cc3)C[C@@]21C` (stereo partly drawn) [Compound 62, (4αR,5S)-1-(4-fluorophenyl)-4α-methyl-N-propyl-N-(tetrahydrofuran-2-ylmethyl)-1,4,4α,5,6,7-hexahydrocyclopenta[f]indazole-5-carboxamide], for which the affinity in assay [1] corresponds to a Ki of 6.9 nM. Besides, the results for the Emax at Glucocorticoid Receptor, at human GR (setting [2]) and on human GR (setting [3]) were 18%, 41.5% and > 5%, respectively. For the same compound, the EC50 on Glucocorticoid Receptor was found to be 602 nM; at human GR (Table 1), 688 nM. Also, at human GR (Table 1), the “GITAR Greater than by GRAMMER % SEP” value stood at 23.5%.

Turning to `CCCN(CC1CCCO1)C(=O)[C@H]1CCC2=Cc3c(cnn3-c3ccc(F)cc3)C[C@@]21C` (stereo partly drawn) [Compound 63, (4αR,5S)-1-(4-fluorophenyl)-4α-methyl-N-propyl-N-(tetrahydrofuran-2-ylmethyl)-1,4,4α,5,6,7-hexahydrocyclopenta[f]indazole-5-carboxamide], in assay [1], the Ki – broadly, the equilibrium dissociation constant of an inhibitor or competing ligand from its target – amounted to 6 nM. Besides, at Glucocorticoid Receptor, the “Transactivation A549 Cells GRAMMER Emax” value is 28.3% and the EC50 was determined as 725 nM. Moreover, at human GR (Table 1), the “GITAR Greater than by GRAMMER % SEP” value amounted to 17.6% and the EC50 worked out at 713 nM. Moreover, the “Transrepression U937 Cells GITAR Emax” value at human GR (setting [4]) is reported as 45.9%.

In turn, `C[C@]12Cc3cnn(-c4ccc(F)cc4)c3C=C1CC[C@@H]2C(=O)N(CC1CCC1)CC1CCCO1` (stereo partly drawn) [Compound 64, (4αR,5S)-N-(cyclobutylmethyl)-1-(4-fluorophenyl)-4α-methyl-N-(tetrahydrofuran-2-ylmethyl)-1,4,4α,5,6,7-hexahydrocyclopenta[f]indazole-5-carboxamide] displayed a Ki in assay [1] of 1.9 nM. Moreover, the Emax on Glucocorticoid Receptor is 27.1%; at human GR (setting [2]), 36.6%; at human GR (setting [3]), > 5%. Besides, the EC50 at Glucocorticoid Receptor is 674 nM; on human GR (Table 1), 479 nM. Moreover, at human GR (Table 1), the “GITAR Greater than by GRAMMER % SEP” value is given as 9.5%.

`CCCN(C[C@H](C)O)C(=O)[C@H]1CCC2=Cc3c(cnn3-c3ccc(F)cc3)C[C@@]21C` [Compound 65, (4αR,5S)-1-4-(4-fluorophenyl)-N-[(2S)-2-hydroxypropyl]-4α-methyl-N-propyl-1,4,4α,5,6,7-hexahydrocyclopenta[f]indazole-5-carboxamide] returned an inhibition constant Ki in assay [1] of 4.7 nM. Further, the results for the Emax at Glucocorticoid Receptor, on human GR (setting [2]) and at human GR (setting [3]) were 72.8%, 81.2% and > 5%, respectively. The values for the EC50 on Glucocorticoid Receptor and on human GR (Table 1) were 431 nM and 424 nM, respectively. Also, the “GITAR Greater than by GRAMMER % SEP” value on human GR (Table 1) turned out to be 8.4%.

Take `CC(C)CN(C[C@H](C)O)C(=O)[C@H]1CCC2=Cc3c(cnn3-c3ccc(F)cc3)C[C@@]21C` [Compound 66, (4αR,5S)-1-(4-fluorophenyl)-N-[(2S)-2-hydroxypropyl]-N-isobutyl-4α-methyl-1,4,4α,5,6,7-hexahydrocyclopenta[f]indazole-5-carboxamide]: the affinity in assay [1] corresponds to a Ki of 8.7 nM. The Emax was 67.6% at Glucocorticoid Receptor, 78.1% on human GR (setting [2]) and > 5% on human GR (setting [3]). Besides, the EC50 at Glucocorticoid Receptor came to 613 nM; at human GR (Table 1) it was 685 nM. For the same compound, the “GITAR Greater than by GRAMMER % SEP” value on human GR (Table 1) was 10.5%.

Regarding `CC(C)CN(C[C@@H](C)O)C(=O)[C@H]1CCC2=Cc3c(cnn3-c3ccc(F)cc3)C[C@@]21C` [Compound 67, (4αR,5S)-1-(4-fluorophenyl)-N-[(2R)-2-hydroxypropyl]-N-isobutyl-4α-methyl-1,4,4α,5,6,7-hexahydrocyclopenta[f]indazole-5-carboxamide], the Ki in assay [1] was 5.1 nM. In addition, the results for the Emax on Glucocorticoid Receptor, on human GR (setting [2]) and on human GR (setting [3]) were 67%, 76.9% and > 5%, respectively. Also, the results for the EC50 at Glucocorticoid Receptor and at human GR (Table 1) were 725 nM and 558 nM, respectively. Further, the “GITAR Greater than by GRAMMER % SEP” value on human GR (Table 1) turned out to be 9.9%.

For the compound `C[C@]12Cc3cnn(-c4ccc(F)cc4)c3C=C1CC[C@@H]2C(=O)N(CCO)c1ccccc1` [Compound 68, (4αR,5S)-1-(4-fluorophenyl)-N-(2-hydroxyethyl)-4α-methyl-N-phenyl-1,4,4α,5,6,7-hexahydrocyclopenta[f]indazole-5-carboxamide], the affinity in assay [1] corresponds to a Ki of 3.8 nM. For the same compound, the Emax is 3.8% on Glucocorticoid Receptor, 18.2% at human GR (setting [2]) and > 5% at human GR (setting [3]). Moreover, the EC50 on Glucocorticoid Receptor worked out at 128 nM; on human GR (Table 1) it was 1020 nM. Moreover, the “GITAR Greater than by GRAMMER % SEP” value at human GR (Table 1) amounted to 14.4%.

Take `C[C@H](O)CN(CCc1ccccc1F)C(=O)[C@H]1CCC2=Cc3c(cnn3-c3ccc(F)cc3)C[C@@]21C` [Compound 69, (4αR,5S)-1-(4-fluorophenyl)-N-[2-(2-fluorophenyl)ethyl]-N-[(2S)-2-hydroxypropyl]-4α-methyl-1,4,4α,5,6,7-hexahydrocyclopenta[f]indazole-5-carboxamide]: in assay [1], the inhibitory constant (Ki) is 5.4 nM. Further, the Emax is 21.9% at Glucocorticoid Receptor, 64.4% at human GR (setting [2]) and > 5% at human GR (setting [3]). Besides, the EC50 stood at 680 nM on Glucocorticoid Receptor and 714 nM on human GR (Table 1). Further, the “GITAR Greater than by GRAMMER % SEP” value on human GR (Table 1) was 42.6%.

As for `CN(CC(O)C(F)(F)F)C(=O)[C@H]1CCC2=Cc3c(cnn3-c3ccc(F)cc3)C[C@@]21C` (stereo partly drawn) [Compound 70, (4αR,5S)-1-(4-fluorophenyl)-N,4α-dimethyl-N-(3,3,3-trifluoro-2-hydroxypropyl)-1,4,4α,5,6,7-hexahydrocyclopenta[f]indazole-5-carboxamide], the inhibitory constant (Ki) in assay [1] came to 10.7 nM. Also, the Emax at Glucocorticoid Receptor is 62.5%; at human GR (setting [2]), 86.9%; at human GR (setting [3]), > 5%. The EC50 at Glucocorticoid Receptor was found to be 231 nM; on human GR (Table 1), 276 nM. Moreover, at human GR (Table 1), the “GITAR Greater than by GRAMMER % SEP” value was 24.5%.

In assay [1], `CCN(CC(O)C(F)(F)F)C(=O)[C@H]1CCC2=Cc3c(cnn3-c3ccc(F)cc3)C[C@@]21C` (stereo partly drawn) [Compound 71, (4αR,5S)-N-ethyl-1-(4-fluorophenyl)-4α-methyl-N-(3,3,3-trifluoro-2-hydroxypropyl)-1,4,4α,5,6,7-hexahydrocyclopenta[f]indazole-5-carboxamide] gave a Ki of 2.6 nM. Further, the results for the Emax at Glucocorticoid Receptor, on human GR (setting [2]) and on human GR (setting [3]) were 71.7%, 95.6% and > 5%, respectively. Moreover, the EC50 on Glucocorticoid Receptor was 151 nM; at human GR (Table 1), 85 nM. Besides, the “GITAR Greater than by GRAMMER % SEP” value at human GR (Table 1) is given as 24.0%.

As for `CCN(CC(O)C(F)(F)F)C(=O)[C@H]1CCC2=Cc3c(cnn3-c3ccc(F)cc3)C[C@@]21C` (stereo partly drawn) [Compound 72, (4αR,5S)-N-ethyl-1-(4-fluorophenyl)-4α-methyl-N-(3,3,3-trifluoro-2-hydroxypropyl)-1,4,4α,5,6,7-hexahydrocyclopenta[f]indazole-5-carboxamide], the Ki in assay [1] was determined as 2.3 nM. Besides, on Glucocorticoid Receptor, the “Transactivation A549 Cells GRAMMER Emax” value was 71.2% and the EC50 turned out to be 37 nM. On human GR (Table 1), the “GITAR Greater than by GRAMMER % SEP” value is reported as 19.6% and the EC50 turned out to be 43.9 nM. Moreover, the “Transrepression U937 Cells GITAR Emax” value at human GR (setting [4]) came to 90.8%.

Consider `C[C@H](O)CN(CCC(F)(F)F)C(=O)[C@H]1CCC2=Cc3c(cnn3-c3ccc(F)cc3)C[C@@]21C` [Compound 73, (4αR,5S)-1-(4-fluorophenyl)-N-[(2S)-2-hydroxypropyl]-4α-methyl-N-(3,3,3-trifluoropropyl)-1,4,4α,5,6,7-. hexahydrocyclopenta[f]indazole-5-carboxamide], for which affinity in assay [1] was put at a Ki of 2.1 nM. Further, the Emax was 71.1% on Glucocorticoid Receptor, 89.5% at human GR (setting [2]) and > 5% on human GR (setting [3]). Besides, the figures for the EC50 on Glucocorticoid Receptor and on human GR (Table 1) were 152 nM and 137 nM, respectively. Also, the “GITAR Greater than by GRAMMER % SEP” value at human GR (Table 1) was determined as 18.4%.
